Assays:
Format in all cases: in vivo
C57BL/6J mice = assay: The lipid-lowering effect in C57BL/6J mice (high-fat diet); details: HFD C57BL/6J mice, after 21 days, six mice per group
Procedure: 1. The Lipid-Lowering Effect in C57BL/6J Mice
8-week C57BL/6J mice are divided into standard diet (STD) group and the high-fat diet (HFD) group. In the HFD group, the Simvastatin (5 mg/kg), Sildenafil-Atorvastatinic acid complex salt, Sildenafil-Rosuvastatinic acid complex salt, Sildenafil-Simvastatinic acid complex salt (2.5 mg/kg) are separately administered orally. After 21 days, the amounts (mg/d1) of the triglyceride (TG), the total cholesterol (Tot.-C), the high density lipoprotein cholesterol (HDL-C), and the low density lipoprotein cholesterol (LDL-C) of six mice for each group are measured as shown in Tables 2.

[1] = tested on: male Wistar rats treated with MCT; assay: Monocrotaline (MCT)-induced pulmonary arterial hypertension in rats, pulmonary artery blood pressure; details: for PABP: MCT (60 mg, intracutaneously)-treated male Wistar rats, 2.5 mg/kg/day p.o., MCT alone 25 ± 2.3, control 11 ± 1.4; for effect on pulmonary artery blood pressure (PABP), in words: MCT-treated male Wistar rats, 2.5 mg/kg orally every day
Source text: 2. The Monocrotaline (MCT)-Treated Rats Show the Decreased Pulmonary Aterial Hypertension
Pulmonary aterial hypertension in MCT-treated rats is caused on day 21 after the intracutaneously injection.

TGF-β = assay: Bleomycin (BM)-induced lung fibrosis in mice, TGF-β expression in tracheal irrigation solution by EIA; details: 60 mg/kg BM inhalation, *P < 0.05 vs control group
Procedure: 3. Sildenafil-Simvastatinic Acid Complex Salts Inhibit the Lung Fibrosis in Mice Induced by Bleomycin (BM) Mediated Via TGF-β Expression in Lung The increased amount of the synthetic collagen and the generation of the macrophage in alveolus may facilitate the formulation of transforming growth factor beta (TGF-β), and the expression of TGF-β is looked as a biomarker of the lung fibrosis. The simvastatin (5 mg/kg) and Sildenafil-Simvastatinic acid complex salts (2.5 mg/kg) are orally administered to the mice for inhibiting the lung fibrosis induced by TGF-β expression in tracheal irrigation solution that resulted from 60 mg/kg BM inhalation (Table 4). The state of the TGF-β expression in the irrigation solution is measured by the enzyme immunoassay (EIA).

Molecule: Sildenafil-Atorvastatinic acid complex salt
- HDL-C (C57BL/6J mice; 2.5 mg/kg orally): 97.6 ± 2.8 mg/d1
- LDL-C (C57BL/6J mice; 2.5 mg/kg orally): 16.8 ± 1.8 mg/d1
- TG (C57BL/6J mice; 2.5 mg/kg orally): 79.2 ± 4.6 mg/d1
- Tot.-C (C57BL/6J mice; 2.5 mg/kg orally): 130.7 ± 1.7 mg/d1

Molecule: Sildenafil-Simvastatinic acid complex salt
- HDL-C (C57BL/6J mice; 2.5 mg/kg orally): 102.4 ± 2.3 mg/d1
- LDL-C (C57BL/6J mice; 2.5 mg/kg orally): 17.3 ± 1.4 mg/d1
- TG (C57BL/6J mice; 2.5 mg/kg orally): 81.2 ± 4.4 mg/d1
- Tot.-C (C57BL/6J mice; 2.5 mg/kg orally): 129.7 ± 1.4 mg/d1
- PABP [1]: 12 ± 1.5 mmHg
- effect on pulmonary artery blood pressure (PABP), in words [1]: decreasing the pulmonary artery blood pressure
- Changed amount of the lung TGF-β (TGF-β; 2.5 mg/kg orally): 43 ± 1.8%*

Molecule: Sildenafil-γ-Polyglutamate complex
- PABP [1]: 11 ± 0.8 mmHg
- effect on pulmonary artery blood pressure (PABP), in words [1]: decreasing the pulmonary artery blood pressure

Molecule: Sildenafil-Rosuvastatinic acid complex salt
- HDL-C (C57BL/6J mice; 2.5 mg/kg orally): 103.4 ± 1.5 mg/d1
- LDL-C (C57BL/6J mice; 2.5 mg/kg orally): 15.2 ± 1.7 mg/d1
- TG (C57BL/6J mice; 2.5 mg/kg orally): 83.2 ± 5.3 mg/d1
- Tot.-C (C57BL/6J mice; 2.5 mg/kg orally): 131.7 ± 1.6 mg/d1

Molecule: CCC(C)(C)C(=O)O[C@H]1C[C@@H](C)C=C2C=C[C@H](C)[C@H](CC[C@@H]3C[C@@H](O)CC(=O)O3)[C@H]21 [Simvastatin, reference compound]
- HDL-C (C57BL/6J mice; 5 mg/kg orally): 103.18 ± 2.5 mg/d1
- LDL-C (C57BL/6J mice; 5 mg/kg orally): 15.3 ± 1.3 mg/d1
- TG (C57BL/6J mice; 5 mg/kg orally): 82.67 ± 6.3 mg/d1
- Tot.-C (C57BL/6J mice; 5 mg/kg orally): 133.67 ± 4.3 mg/d1
- Changed amount of the lung TGF-β (TGF-β; 5 mg/kg orally): 40 ± 4.3%*

From patent publication US8497370B2, “Processes for preparing amine salts of sildenafil-analogues and use thereof” (Kaohsiung Medical University, priority 2010, dated 2013)
